From article PMC9658545, “From Nature to Synthetic Compounds: Novel 1(N),2,3 Trisubstituted-5-oxopyrrolidines Targeting Multiple Myeloma Cells” (International Journal of Molecular Sciences, 2022)
≈ marks a conversion by molar mass, not a printed value. Where two headings read alike, the source gives them in different places. Each block holds one compound with its values, some of them ahead of it.

Legend:
RPMI 8226 cells [1] = assay: Trypan blue vital count assay (viable and dead cells); type: cell-based, Human; conditions: 100 µM
Method: RPMI 8226 cells treated with Bortezomib (BTZ) 1, 5 and 10 nM were used as positive control for all experiments (Figure S2, Supplementary Information). Cells were seeded in 6-well plates at a density of 2.5 × 10^5 cells/well and were treated after 24 h with different concentrations of RA molecules. After 24 h of treatment, cells were collected and stained with Trypan blue vital dye (Sigma Aldrich, Burlington, VT, USA). Viable and dead cells were then counted in a hemocytometer under a light microscope.

RPMI 8226 cells [2] = assay: MTT assay of cell viability in RPMI 8226 cells; type: cell-based, Human; conditions: for fold more active than the reference compound Hib-ester: after 24 h of treatment; for profile in MTT and Trypan blue tests compared with racemate: enantiomers of 13, 10, 100 and 500 µM
Method: RPMI 8226 cells were treated with different concentrations of all compounds (10, 100 and 500 µM) at 24 h. The concentrations have been chosen based on the results previously obtained with Hib-ester. MTT assay was performed to assess cell viability and calculate the IC50 (Table 1). For compounds not showing a significant reduction of cell viability at the concentration of 500 µM, the IC50 was not calculated, and they have been considered not effective. Untreated cells were used as control (CTRL).
Human multiple myeloma RPMI 8226 cells were cultured in RPMI 1640 medium supplemented with 10% fetal bovine serum, 1% L-glutamine and 1% penicillin and streptomycin (Euroclone, Italy). Human glioblastoma U87-MG cells were cultured in DMEM low glucose supplemented with 10% fetal bovine serum, 1% L-glutamine and 1% penicillin and streptomycin (Euroclone, Italy). Cells were incubated in a humidified incubator at 37 °C and 5% CO2. A stock solution of all compounds in DMSO (50 mM) was prepared and then directly diluted in culture medium.
Cells were seeded in 96-well plates at a density of 1 × 10^4 cells/well and were treated after 24 h with RA, AM or SU molecules. After 24 h, a 3-(4,5-dimethylthiazol-2-yl)-2,5-diphenyltetrazolium bromide (MTT, Sigma Aldrich, United States) solution was added to each well to reach a final concentration of 0.5 mg/mL. After 4 h of incubation (4 h for RPMI 8226 cells), formazan salt was solubilized in ethanol and absorbance was measured at 570 nm in a microplate reader (BMG-Labtech, Ortenberg, Germany).

proteasome [3] = target: T1, proteasome (Homo sapiens, UniProt P28074); assay: Proteasome activity assay on lysates of treated RPMI 8226 cells (Suc-LLVY-AMC substrate); type: cell-based; conditions: for proteasome inhibition activity: after 24 h, 10, 100 and 500 µM; for IC50: RPMI 8226 cells treated 24 h, read-out: IC50 (proteasome inhibition)
T1 construct: endogenous in cells; host or cells: RPMI 8226 (human multiple myeloma)
T1 sequence (P28074 60-263): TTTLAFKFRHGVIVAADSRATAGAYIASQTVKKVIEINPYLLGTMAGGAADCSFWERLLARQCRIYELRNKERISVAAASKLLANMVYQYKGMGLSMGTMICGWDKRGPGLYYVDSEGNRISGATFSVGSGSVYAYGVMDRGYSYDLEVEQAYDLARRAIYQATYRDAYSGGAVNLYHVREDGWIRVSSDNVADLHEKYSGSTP
Method: RPMI 8226 cells treated with Bortezomib (BTZ) 1, 5 and 10 nM were used as positive control for all experiments (Figure S2, Supplementary Information).
Cells not used in the Trypan blue assay were lysed to assess proteasome activity. Briefly, cells were resuspended in a lysis buffer (50 mM Hepes Ph 7.5, 150 mM NaCl, 10% glycerol, 1% Triton X-100, 1.5 mM MgCl2, 5 mM EGTA) and were mechanically lysed with a vortex. Obtained protein lysates were centrifuged at 13,500 RPM for 15 min and were quantified using the Bradford method. Some 40 µg of proteins were then loaded in black-96-well plate to perform the proteasome activity assay. In each well, 7.6 mg/mL proteasome substrate (N-Succinyl-Leu-Leu-Val-Tyr-7-Amido-4-Methylcoumarin, Sigma Aldrich, United States) and proteasome buffer (250 mM Hepes pH 7.5, 5 mM EDTA pH 8.0, 0.5% NP-40, 0.01% SDS) were added to the proteins. Fluorescence was measured after 2 h of incubation in a microplate reader (excitation 380 nm, emission 460 nm; BMG-Labtech, Ortenberg, Germany).
RPMI 8226 cells were treated with different concentrations (10, 100 and 500 µM) of each compound and, after 24 hours, proteasome activity assay was performed.
Supplementary Figure S1. Proteasome activity of RPMI 8226 cells treated with (2R,3R/2S,3S)-13, 14, 16 and 20. Proteasome activity was evaluated in cells treated for 24 hours with different concentrations (10, 100 and 500 µM) of compounds. The graphs represent the mean proteasome activity ± SD, compared to untreated controls, arbitrarily set to 100%. ** p < 0.01 vs CTRL.
RPMI 8226 cells treated with BTZ 1, 5 and 10 nM were used as positive control for all experiments. […]
The graphs represent the mean cell number ± SD of viable and dead cells. ** p < 0.01 vs CTRL; C) Proteasome activity of RPMI 8226 cells treated with BTZ. Proteasome activity was evaluated in cells treated for 24 hours with different concentrations (1, 5 and 10 nM) of BTZ. The graphs represent the mean proteasome activity ± SD, compared to untreated controls, arbitrarily set to 100%. ** p < […]

RPMI 8226 cells [4] = assay: MTT assay of cell viability in RPMI 8226 cells; type: cell-based, Human; conditions: for change of MTT efficacy over time: 24, 48 and 72 h; for IC50: Homo sapiens
proteasome [5] = tested on: proteasome; set-up: method as in PMID 31323932; conditions: cited from earlier work
[6] = set-up: method as in PMID 31323932; conditions: cited from earlier work
[7] = set-up: method as in PMID 31323932; conditions: cited from earlier work; remark: listed apart in the source
[8] = tested on: human multiple myeloma RPMI 8226 cells; set-up: method as in PMID 31323932; conditions: at 24 h; cited from earlier work
[9] = Homo sapiens, RPMI-8226, 24 h, MTT assay, concentrations 10, 100 and 500 µM, n.e.* = compounds not effective at 500 µM, read-out: IC50 μM RPMI8226
[10] = Homo sapiens, RPMI-8226, 24 h of treatment, read-out: IC50 (MTT)
[11] = 24 h, MTT assay, concentrations 10, 100 and 500 µM, n.e.* = compounds not effective at 500 µM
[12] = 24 h, MTT assay, concentrations 10, 100 and 500 µM, n.e.* = compounds not effective at 500 µM, read-out: IC50 μM RPMI8226
[13] = 24 h of treatment, read-out: IC50 (MTT)

Compound: O=C1CC(C(=O)O)C(c2ccccc2)O1 [(2R,3R/2S,3S)-1]
- IC50 μM RPMI8226 (RPMI 8226 cells [2]; [11]): n.e.*

Compound: COC(=O)C1CCC(=O)N(Cc2ccccc2)C1c1ccccc1 [(2R,3R/2S,3S)-20, Methyl 1-Benzyl-6-oxo-2-phenylpiperidine-3-carboxylate]
- IC50 (RPMI 8226 cells [2]; [9]): 152 ± 29 µM
- IC50 (RPMI 8226 cells [2]; [10]): < 350 µM
- fold more active than the reference compound Hib-ester (RPMI 8226 cells [2]): at least 6 fold
- change of MTT efficacy over time (RPMI 8226 cells [4]): did not show a significant increase in efficacy over time

Compound: COC(=O)C1CC(=O)NC1C(=O)OC [(2R,3R/2S,3S)-8, Dimethyl 5-Oxopyrolidine-2,3-dicarboxylate]
- IC50 μM RPMI8226 (RPMI 8226 cells [2]; [11]): n.e.*

Compound: COC(=O)C1CNC(=O)C1 (racemic) [(S/R)-6]
- IC50 μM RPMI8226 (RPMI 8226 cells [2]; [11]): n.e.*

Compound: COC(=O)C1OC(=O)CC1(O)C(=O)OC (centres unmarked) [Hib-ester]
- proteasome inhibition (proteasome [5]): inhibit proteasome
- neurotoxic effects [6]: without neurotoxic effects
- effect on migration and cell invasion [7]: reduce migration and cell invasion
- IC50 (antiproliferative properties) [8]: 450 µg/mL (≈ 2060 µM)

Compound: Methyl 1-Benzyl-2-(3,5-dimethoxyphenyl)-5-oxopyrrolidine-3-carboxylate [(2R,3R/2S,3S)-16]
- IC50 (RPMI 8226 cells [2]; [12]): 138 ± 27 µM
- IC50 (RPMI 8226 cells [2]; [13]): < 350 µM
- fold more active than the reference compound Hib-ester (RPMI 8226 cells [2]): at least 6 fold
- change of MTT efficacy over time (RPMI 8226 cells [4]): did not show a significant increase in efficacy over time

Compound: COC(=O)[C@@H]1CC(=O)O[C@@H]1c1ccccc1 [(2R,3R/2S,3S)-2, Methyl (2S,3R)-5-Oxo-2phenyltetrahydrofuran-3-Carboxylate]
- IC50 μM RPMI8226 (RPMI 8226 cells [2]; [11]): n.e.*

Compound: COC(=O)C1CCC(=O)N(CC(C)C)C1c1ccccc1 [(2R,3R/2S,3S)-18, Methyl 1-Isobutyl-6-oxo-2-phenylpiperidine-3-carboxylate]
- IC50 (RPMI 8226 cells [2]; [9]): 301 ± 29 µM
- IC50 (RPMI 8226 cells [2]; [10]): < 350 µM
- fold more active than the reference compound Hib-ester (RPMI 8226 cells [2]): at least 6 fold

Compound: Methyl 2-(3,5-Dimethoxyphenyl)-1-isobutyl-5-oxopyrrolidine-3-carboxylate [(2R,3R/2S,3S)-12]
- IC50 (RPMI 8226 cells [2]; [12]): 263 ± 41 µM
- IC50 (RPMI 8226 cells [2]; [13]): < 350 µM
- fold more active than the reference compound Hib-ester (RPMI 8226 cells [2]): at least 6 fold

Compound: COC(=O)C1CC(=O)N(CC(C)C)C1c1ccccc1 [(2R,3R/2S,3S)-10, Methyl 1-Isobutyl-5-oxo-2-phenylpyrrolidine-3-carboxylate]
- IC50 (RPMI 8226 cells [2]; [9]): 265 ± 49 µM
- IC50 (RPMI 8226 cells [2]; [10]): < 350 µM
- fold more active than the reference compound Hib-ester (RPMI 8226 cells [2]): at least 6 fold

Second part, led by results:

- proteasome inhibition activity (proteasome [3]): most effective
Compound: O=C(O)C1CC(=O)N(Cc2ccccc2)C1c1ccccc1 (racemic) [(2R,3R/2S,3S)-13, 1-Benzyl-5-oxo-2-phenylpyrrolidine 3-Carboxylic Acid]
- cell death (Trypan blue vital count) (RPMI 8226 cells [1]): significant increase in cell death
- IC50 (RPMI 8226 cells [2]; [9]): 169 ± 21 µM
- IC50 (RPMI 8226 cells [2]; [10]): < 350 µM
- fold more active than the reference compound Hib-ester (RPMI 8226 cells [2]): at least 6 fold
- change of MTT efficacy over time (RPMI 8226 cells [4]): time-dependent effect
- IC50 (RPMI 8226 cells [4]; RPMI-8226, 48 h): 85 µM
- IC50 (RPMI 8226 cells [4]; RPMI-8226, 72 h): 15 µM
- fold more active than Hib-ester in reducing RPMI 8226 cells growth (RPMI 8226 cells [4]; after 24 and 72 h of treatment): twelve-fold more active

- IC50 μM RPMI8226 (RPMI 8226 cells [2]; [11]): n.e.*
Compound: CC(C)CN1C(=O)CCC(C(=O)O)C1c1ccccc1 [(2R,3R/2S,3S)-17, 1-Isobutyl-6-oxo-2-phenylpiperidine 3-Carboxylic Acid]

- IC50 μM RPMI8226 (RPMI 8226 cells [2]; [11]): n.e.*
Compound: O=C(O)C1CCC(=O)N(Cc2ccccc2)C1c1ccccc1 [(2R,3R/2S,3S)-19, 1-Benzyl-6-oxo-2-phenylpiperidine 3-Carboxylic Acid]

- IC50 μM RPMI8226 (RPMI 8226 cells [2]; [11]): n.e.*
Compound: COC(=O)C1CC(=O)N(C)C1 (racemic) [(S/R)-7, Methyl 1-Methyl-5-oxopyrrolidine-3-carboxylate]

- IC50 μM RPMI8226 (RPMI 8226 cells [2]; [11]): n.e.*
Compound: CCCCN1CC(C(=O)O)CC1=O (racemic) [(S/R)-4]

- IC50 μM RPMI8226 (RPMI 8226 cells [2]; [11]): n.e.*
Compound: 2-(3,5-Dimethoxyphenyl)-1-isobutyl-5-oxopyrrolidine-3-carboxylic Acid [(2R,3R/2S,3S)-11]

- IC50 (proteasome [3]): 90 ± 8 µM
- activity relative to the opposite enantiomer in the biological assays (proteasome [3]; enantiomers of 13): twofold more active
Compound: O=C(O)C1CC(=O)N(Cc2ccccc2)C1c1ccccc1 (single isomer, unassigned; (-)) [(−)-(2R,3R)-13]
- profile in MTT and Trypan blue tests compared with racemate (RPMI 8226 cells [2]): profile comparable with racemate

- IC50 (proteasome [3]): 189 ± 17 µM
Compound: O=C(O)C1CC(=O)N(Cc2ccccc2)C1c1ccccc1 (single isomer, unassigned; (+)) [(+)-(2S,3S)-13]
- profile in MTT and Trypan blue tests compared with racemate (RPMI 8226 cells [2]): less antiproliferative properties

- IC50 μM RPMI8226 (RPMI 8226 cells [2]; [11]): n.e.*
Compound: COC(=O)[C@@H]1CCC(=O)N1 [(S)-3, (S)-Methyl-5-oxopyrrolidine-2-carboxylate]

- proteasome inhibition at the lowest evaluated concentration (proteasome [3]; 10 µM, 24 h): significant inhibition
- proteasome inhibition activity (proteasome [3]): most effective
Compound: COC(=O)C1CC(=O)N(Cc2ccccc2)C1c1ccccc1 [(2R,3R/2S,3S)-14, Methyl 1-Benzyl-5-oxo-2-phenylpyrrolidine-3-carboxylate]
- cell death (Trypan blue vital count) (RPMI 8226 cells [1]): significant increase in cell death
- IC50 (RPMI 8226 cells [2]; [9]): 61 ± 12 µM
- IC50 (RPMI 8226 cells [2]; [10]): < 350 µM
- fold more active than the reference compound Hib-ester (RPMI 8226 cells [2]): 34 fold
- fold more active than the reference compound Hib-ester (RPMI 8226 cells [2]; listed as 14): at least 6 fold
- change of MTT efficacy over time (RPMI 8226 cells [4]): time-dependent effect
- IC50 (RPMI 8226 cells [4]; RPMI-8226, 48 h): 43 µM
- IC50 (RPMI 8226 cells [4]; RPMI-8226, 72 h): 34 µM

- melting point: 120.6 to 122.7 °C
- IC50 μM RPMI8226 (RPMI 8226 cells [2]; [11]): n.e.*
Compound: CC(C)CN1C(=O)CC(C(=O)O)C1c1ccccc1 [(2R,3R/2S,3S)-9, 1-Isobutyl-5-oxo-2-phenylpyrrolidine 3-Carboxylic Acid]

- IC50 μM RPMI8226 (RPMI 8226 cells [2]; [11]): n.e.*
Compound: 1-Benzyl-2-(3,5-dimethoxyphenyl)-5-oxopyrrolidine-3-carboxylic Acid [(2R,3R/2S,3S)-15]

- IC50 μM RPMI8226 (RPMI 8226 cells [2]; [11]): n.e.*
Compound: CCCCN1CC(C(=O)OC)CC1=O (racemic) [(S/R)-5, Methyl 1-Butyl-5-oxopyrrolidine-3-carboxylate]
